Measurements taken from ChEMBL document CHEMBL1155583, “Steroidal saponins from Dracaena surculosa” (J Nat Prod, 2000).
≈ marks a conversion by molar mass, not a printed value.

system: HL-60; test: Cytotoxicity against human HL60 cells by MTT assay; type: functional, cell-based

SMILES	IC50
C[C@H]1CC[C@@]2(OC1)O[C@H]1C[C@H]3[C@@H]4CC=C5C[C@@H](O)C[C@@H](O[C@@H]6O[C@H](C)[C@H](O)[C@H](O)[C@H]6O[C@@H]6O[C@@H](C)[C@H](O)[C@@H](O)[C@H]6O)[C@]5(C)[C@H]4CC[C@]3(C)[C@H]1[C@@H]2C	8.7 µg/mL (≈ 12 µM)
C[C@@H]1CC[C@@]2(OC1)O[C@H]1C[C@H]3[C@@H]4CC=C5C[C@@H](O[C@@H]6O[C@H](CO)[C@@H](O)[C@H](O)[C@H]6O[C@@H]6O[C@@H](C)[C@H](O)[C@@H](O)[C@H]6O)CC[C@]5(C)[C@H]4CC[C@]3(C)[C@@]1(O)[C@@H]2C	5.2 µg/mL (≈ 7.04 µM)
C[C@@H]1CC[C@@]2(OC1)O[C@H]1C[C@H]3[C@@H]4CC=C5C[C@@H](O[C@@H]6O[C@H](CO)[C@@H](O[C@@H]7O[C@@H](C)[C@H](O)[C@@H](O)[C@H]7O)[C@H](O)[C@H]6O[C@@H]6O[C@@H](C)[C@H](O)[C@@H](O)[C@H]6O)CC[C@]5(C)[C@H]4CC[C@]3(C)[C@@]1(O)[C@@H]2C	4.2 µg/mL (≈ 4.75 µM)
